Assay [1] deals with T1, Olfr2 (Mus musculus, UniProt Q9QWU6).
T1 sequence (Q9QWU6 1-327): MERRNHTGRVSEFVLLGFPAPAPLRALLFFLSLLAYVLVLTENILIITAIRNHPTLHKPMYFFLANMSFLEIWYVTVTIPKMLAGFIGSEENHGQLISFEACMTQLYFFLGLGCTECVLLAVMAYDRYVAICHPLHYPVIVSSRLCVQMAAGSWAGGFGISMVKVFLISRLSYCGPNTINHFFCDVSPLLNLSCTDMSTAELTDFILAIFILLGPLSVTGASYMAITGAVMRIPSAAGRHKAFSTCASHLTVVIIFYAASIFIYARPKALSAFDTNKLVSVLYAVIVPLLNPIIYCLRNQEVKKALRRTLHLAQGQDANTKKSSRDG
Description: Inflammatory gene expression (real time PCR) in explanted whole aortas treated with octanal, citral, LPS. Type of assay: cell-based. To be noted: for octanal-induced increase in CCL2, CCL4, TNF and iNOS (Nos2) expression: citral 100 μM with octanal 10 μM, in presence and absence of LPS; for mRNA expression of Ccl2, Ccl4, Tnf and Nos2 (iNOS): explanted whole aortas of Apoe−/− mice on WD 2 weeks, octanal 10 μM alone, normalized to Gapdh and untreated control. Further details: Olfr2 expression was confirmed at the protein level on F4/80^+ vascular macrophages; from tissue; host or cells: explanted whole aortas, digested aortic cell suspensions (F4/80+ vascular macrophages) and blood monocytes of Apoe-/- C57BL/6J mice; living Apoe-/- mice for the in vivo study. As to the method:
Gene expression analysis was performed by harvesting whole aortas from apoE^−/− mice kept on western diet (WD) for 2 weeks and treating for 12h with DMSO (Ctrl), citral (Cit, 100 μM), octanal (Oct, 10 μM in DMSO) or lipopolysaccharide (lps, 0.5 μg/mL in DMSO) alone or in combination. After the incubation, aortas were transferred in Trizol reagent (1 ml) and digested with gentleMACS™ Dissociator (Millteny). Total RNA was then purified with RNAse Micro kit (Qiagen) and reverse transcribed using the Omniscript reverse transcriptase kit (Qiagen). Real-time PCR reaction was performed following the RT^2 Sybr green gene expression assay protocol (Qiagen). RT2 SYBR Green qPCR mastermix mix and premade RT^2 qPCR Primer Assay for mouse GAPDH, CCL2, CCL4, TNF, and iNOS were used. Data were normalized to the expression levels of the housekeeping gene GAPDH.
To test physiologic effects of Olfr2 activation in situ, explanted whole aortas of mice (n=5 per group) were treated with octanal with or without LPS. Briefly, whole aortas were left untreated or incubated with the Olfr2 agonist octanal (Oct, 10 μM), LPS, (500 ng/mL), or with both for 12 h. Quantitative Real time PCR reaction was performed to detect Ccl2, Ccl4, Tnf, and Nos2 gene expression. Relative expression was normalized to Gapdh expression and the untreated control. […] TNF secretion by vascular macrophages (F4/80+) was confirmed by intracellular staining using flow cytometry (FIG. 7F).
Apoe^−/− mice were fed WD for 2 weeks before sacrifice for aorta explant culture. Whole aortas were incubated in culture medium with DMSO (0.1% as a vehicle), octanal (Oct, 10 μM), LPS (500 ng/mL) alone or octanal and LPS combined (LPS+Oct) for 12 h at 37° C. and 5% CO2. Subsequently, aortas were collected and further processed as below discussed for RNA extraction, and flow cytometry analysis. Culture supernatants were collected, aliquoted, and frozen at −80° C. until further analysis.
BMDMs and hMDMs were incubated in culture media for 12 h at 37° C. and 5% CO2 with Oct, (10 μM), LPS (500 ng/mL) alone or combined with Oct (LPS+Oct) and DMSO (0.1%) as a control and lysed with Qiazol (500 μL; Qiagen) Similarly, whole aortas incubated as previously described were transferred into Qiazol (500 μl; Qiagen) and digested with gentleMACS™ Dissociator (Miltenyi).
RNA extraction was performed using a Qiazol/RNAeasy micro kit hybrid protocol (Qiagen).
Total RNA was quantified using a nanodrop spectrophotometer (Peqlab) and 500 ng were reverse transcribed into cDNA using Omniscript reverse transcriptase (Qiagen). Real time PCR reactions were performed according to the RT^2 SYBR green gene expression assay protocol (Qiagen). RT2 SYBR Green qPCR master mix and premade RT^2 qPCR Primer Assays for mouse Olfr2, Rtp1, Rtp2, Ccl2, Ccl4, Tnf, Nos2 and Gapdh were used. Similarly, real time PCR analysis of hMDMs samples was performed following the RT^2 SYBR green gene expression assay protocol (Qiagen), applying RT^2 SYBR Green qPCR master mix and premade RT^2 qPCR Primer Assays for human OR6A2, TNF, IL-6, NOS2 and GAPDH. The results were calculated applying the 2^−ΔΔCT method^32 using Gapdh/GAPDH as housekeeping gene.

Assay [2] deals with T1, Olfr2. Briefly: IL-1β production in LPS-primed mouse BMDMs. In kind it is cell-based. Details: Olfr2 expression was confirmed at the protein level on F4/80^+ vascular macrophages; from tissue; host or cells: explanted whole aortas, digested aortic cell suspensions (F4/80+ vascular macrophages) and blood monocytes of Apoe-/- C57BL/6J mice; living Apoe-/- mice for the in vivo study. As for the experimental part:
Macrophages are known producers of one of the most prominent cytokines driving atherosclerosis, IL-1β^29. IL-1β production and secretion requires assembly of the inflammasome, a cytoplasmic complex containing several proteins that serves as a molecular platform for activation of the cysteine protease caspase^30,31. To test whether octanal induced IL-1β secretion in macrophages, BMDMs were primed with low-dose LPS (50 ng/mL) for 18 h followed by exposure to octanal alone or together with citral. IL-1β protein in the supernatant was quantified by a cytokine bead array. Data are presented as mean±SEM. *p<0.05, **p<0.01, ***p<0.005, ****p<0.001. p calculated by One-Way ANOVA test, Tukey's multiple comparisons test and unpaired t-test.
Mouse BMDMs and human MDMs were pretreated with LPS (50 ng/mL) or left untreated for 18 h at 37° C. and 5% CO2. […]
Supernatants of stimulated cells and aortic tissue were analyzed by BD CBA Flex Sets (BD Biosciences) for mouse TNFα, CCL2, CCL4, IL-1β, or human TNF, IL6, and IL-1β according to the manufacturer's protocol. Samples were analyzed with LSR-II (BD Biosciences). Data was acquired with FACSDiva software (BD Biosciences) and analyzed with FCAP array software 3.0 (BD Biosciences).

The text below walks through data of US20210145768A1, “MODULATING IMMUNE RESPONSE VIA TARGETING OF OLFACTORY RECEPTOR ACTIVITY” (La Jolla Institute for Allergy and Immunology, priority 2018, published 2021).

“Also recorded” adds a separate entry of the source.

Regarding `CC(C)=CCCC(C)=CC=O` [citral], the “octanal-induced increase in CCL2, CCL4, TNF and iNOS (Nos2) expression” value in assay [1] (explanted aortas, 12 h) was “completely blocked; also recorded: effective at curbing inflammatory mediator expression”; in assay [1] (explanted aortas, 12 h, listed as Cit), “reduced”. In addition, in assay [2] (LPS priming, octanal 10 μM + citral 100 μM), the “octanal-induced IL-1β release, mouse BMDMs” value is “inhibited”.

On to `CCCCCCCC=O` [octanal], for which the “LPS-induced expression of inflammatory molecules (Ccl2, Ccl4, Tnf, Nos2)” value in assay [1] (explanted aortas, octanal 10 μM + LPS 500 ng/mL, 12 h) is recorded as “exacerbate the inflammatory response; also recorded: significantly enhances; also recorded: enhanced the LPS-induced expression”. The “mRNA expression of Ccl2, Ccl4, Tnf and Nos2 (iNOS)” value in assay [1] (12 h) is on record as “induces expression of inflammatory mediators; also recorded: induced mRNA expression”. The “mRNA expression of Ccl2, Ccl4, Tnf and Nos2 (iNOS)” value in assay [1] (12 h, listed as Oct) is listed as “induces pro-inflammatory gene expression”. In addition, in assay [1] (qRT-PCR, octanal + LPS), the “LPS induction of CCL2 (MCP-1) and CCL4” value is “significantly enhanced”; the “iNOS expression induced by LPS” value is listed as “greatly enhanced”. Also, the TNF expression result in assay [1] (qRT-PCR, octanal + LPS, Olfr2 ligation required to reveal LPS-induced increase) is reported as “greatest effect”. For the same molecule, the “CCL2 and CCL4 expression” value in assay [1] (qRT-PCR, octanal alone (without LPS)) is reported as “measurable increase”. The “release of IL-1β into the supernatant, mouse BMDMs” value in assay [2] (LPS 50 ng/mL 18 h priming, then octanal 10 μM) is on record as “strongly increased”.
